The target in assay [1] is Aurora kinase B (Homo sapiens, UniProt Q96GD4).
For assay [2], the target named is DnaJ homolog subfamily A member 1 (Homo sapiens, UniProt P31689).
In assay [3] the target is T1, Serine/threonine-protein kinase STK11 (Homo sapiens, UniProt Q15831).
T1 sequence (Q15831 whole entry): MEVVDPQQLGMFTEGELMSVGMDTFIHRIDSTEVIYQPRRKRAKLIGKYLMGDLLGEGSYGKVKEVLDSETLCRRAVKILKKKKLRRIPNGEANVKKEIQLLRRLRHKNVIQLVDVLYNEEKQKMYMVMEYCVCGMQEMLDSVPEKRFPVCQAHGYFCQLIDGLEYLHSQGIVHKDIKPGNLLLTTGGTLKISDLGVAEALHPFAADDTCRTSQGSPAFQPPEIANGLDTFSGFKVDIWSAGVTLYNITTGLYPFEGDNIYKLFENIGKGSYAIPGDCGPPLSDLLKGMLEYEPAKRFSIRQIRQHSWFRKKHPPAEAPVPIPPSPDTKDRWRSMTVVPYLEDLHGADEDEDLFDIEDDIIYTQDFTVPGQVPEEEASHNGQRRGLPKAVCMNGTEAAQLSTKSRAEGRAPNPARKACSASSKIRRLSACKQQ

For assay [4], the target named is NADH dehydrogenase [ubiquinone] 1 alpha subcomplex subunit 13 (Homo sapiens, UniProt Q9P0J0).
Sequence of NADH dehydrogenase [ubiquinone] 1 alpha subcomplex subunit 13 (Q9P0J0 whole entry, one chain of several): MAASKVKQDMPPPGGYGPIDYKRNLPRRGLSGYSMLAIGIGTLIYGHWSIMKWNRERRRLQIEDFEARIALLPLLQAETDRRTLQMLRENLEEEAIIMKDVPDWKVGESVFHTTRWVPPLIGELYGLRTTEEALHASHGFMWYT
In assay [5] the target is 26S proteasome regulatory subunit 6B (Homo sapiens, UniProt P43686).
Sequence of 26S proteasome regulatory subunit 6B (P43686 whole entry): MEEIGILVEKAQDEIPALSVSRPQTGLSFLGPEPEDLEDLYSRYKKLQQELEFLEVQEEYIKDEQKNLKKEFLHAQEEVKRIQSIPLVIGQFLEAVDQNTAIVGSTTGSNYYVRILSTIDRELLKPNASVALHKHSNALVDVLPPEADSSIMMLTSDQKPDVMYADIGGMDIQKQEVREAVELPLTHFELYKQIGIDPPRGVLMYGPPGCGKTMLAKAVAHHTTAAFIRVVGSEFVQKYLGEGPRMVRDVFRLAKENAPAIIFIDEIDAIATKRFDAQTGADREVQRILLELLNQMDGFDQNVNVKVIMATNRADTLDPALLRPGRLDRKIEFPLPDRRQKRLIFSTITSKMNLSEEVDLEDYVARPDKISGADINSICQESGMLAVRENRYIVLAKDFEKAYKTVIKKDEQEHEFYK
Assay [6] concerns the target DNA topoisomerase 2-alpha (Homo sapiens, UniProt P11388).
Assay [7] deals with T2, Ribosyldihydronicotinamide dehydrogenase [quinone] (Homo sapiens, UniProt P16083).
T2 sequence (P16083 whole entry): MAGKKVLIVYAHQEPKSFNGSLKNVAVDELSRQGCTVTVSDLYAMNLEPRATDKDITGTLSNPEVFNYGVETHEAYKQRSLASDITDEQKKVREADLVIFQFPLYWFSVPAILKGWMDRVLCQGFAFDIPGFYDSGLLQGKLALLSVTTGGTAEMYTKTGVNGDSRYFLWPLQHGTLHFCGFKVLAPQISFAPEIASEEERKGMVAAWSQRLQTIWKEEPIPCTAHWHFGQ

In assay [8] the target is Mitogen-activated protein kinase 3 (Homo sapiens, UniProt P27361).
The target of assay [9] is Serine/threonine-protein kinase MRCK gamma (Homo sapiens, UniProt Q6DT37).
Sequence of Serine/threonine-protein kinase MRCK gamma (Q6DT37 whole entry): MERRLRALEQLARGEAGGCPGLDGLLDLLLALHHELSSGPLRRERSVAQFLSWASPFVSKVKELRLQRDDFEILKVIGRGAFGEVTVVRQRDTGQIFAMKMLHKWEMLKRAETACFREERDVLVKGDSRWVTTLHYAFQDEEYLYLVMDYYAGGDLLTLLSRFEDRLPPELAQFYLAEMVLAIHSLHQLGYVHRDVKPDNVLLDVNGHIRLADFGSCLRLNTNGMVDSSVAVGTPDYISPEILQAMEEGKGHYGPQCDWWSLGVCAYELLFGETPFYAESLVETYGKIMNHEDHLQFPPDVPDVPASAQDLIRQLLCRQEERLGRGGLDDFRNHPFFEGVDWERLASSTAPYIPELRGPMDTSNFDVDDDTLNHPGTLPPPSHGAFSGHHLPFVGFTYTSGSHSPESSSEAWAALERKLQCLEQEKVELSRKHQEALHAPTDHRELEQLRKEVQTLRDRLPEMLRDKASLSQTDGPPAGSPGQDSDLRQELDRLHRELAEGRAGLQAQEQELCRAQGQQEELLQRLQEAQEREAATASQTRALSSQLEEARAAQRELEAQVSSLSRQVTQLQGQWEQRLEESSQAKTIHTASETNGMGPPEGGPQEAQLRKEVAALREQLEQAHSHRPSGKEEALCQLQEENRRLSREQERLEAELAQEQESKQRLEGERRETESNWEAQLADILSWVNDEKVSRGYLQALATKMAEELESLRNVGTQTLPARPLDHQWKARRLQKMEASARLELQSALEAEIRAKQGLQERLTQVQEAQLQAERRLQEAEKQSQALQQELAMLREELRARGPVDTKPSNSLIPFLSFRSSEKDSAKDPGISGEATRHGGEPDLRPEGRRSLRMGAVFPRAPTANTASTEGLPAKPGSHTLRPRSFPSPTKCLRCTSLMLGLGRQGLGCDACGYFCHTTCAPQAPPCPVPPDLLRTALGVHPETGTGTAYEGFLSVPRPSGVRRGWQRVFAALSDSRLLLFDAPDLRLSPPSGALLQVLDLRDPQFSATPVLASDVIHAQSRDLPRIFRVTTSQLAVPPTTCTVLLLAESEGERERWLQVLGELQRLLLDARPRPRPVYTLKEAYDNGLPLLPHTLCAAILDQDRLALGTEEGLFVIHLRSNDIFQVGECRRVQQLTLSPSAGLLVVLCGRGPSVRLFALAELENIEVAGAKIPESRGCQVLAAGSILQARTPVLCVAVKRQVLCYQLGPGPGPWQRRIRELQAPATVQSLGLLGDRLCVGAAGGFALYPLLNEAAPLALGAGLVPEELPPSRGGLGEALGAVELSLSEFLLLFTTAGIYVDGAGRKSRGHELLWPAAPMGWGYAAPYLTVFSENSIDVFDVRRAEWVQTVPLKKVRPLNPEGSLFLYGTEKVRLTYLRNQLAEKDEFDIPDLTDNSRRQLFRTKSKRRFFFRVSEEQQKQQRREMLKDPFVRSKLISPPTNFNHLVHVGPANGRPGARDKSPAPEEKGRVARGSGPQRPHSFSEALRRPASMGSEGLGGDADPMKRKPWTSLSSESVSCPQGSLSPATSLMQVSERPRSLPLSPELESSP
Assay [10] addresses Protein-tyrosine kinase 2-beta (Homo sapiens, UniProt Q14289).
For assay [11], the target named is Serine/threonine-protein kinase PAK 4 (Homo sapiens, UniProt O96013).
Sequence of Serine/threonine-protein kinase PAK 4 (O96013 whole entry): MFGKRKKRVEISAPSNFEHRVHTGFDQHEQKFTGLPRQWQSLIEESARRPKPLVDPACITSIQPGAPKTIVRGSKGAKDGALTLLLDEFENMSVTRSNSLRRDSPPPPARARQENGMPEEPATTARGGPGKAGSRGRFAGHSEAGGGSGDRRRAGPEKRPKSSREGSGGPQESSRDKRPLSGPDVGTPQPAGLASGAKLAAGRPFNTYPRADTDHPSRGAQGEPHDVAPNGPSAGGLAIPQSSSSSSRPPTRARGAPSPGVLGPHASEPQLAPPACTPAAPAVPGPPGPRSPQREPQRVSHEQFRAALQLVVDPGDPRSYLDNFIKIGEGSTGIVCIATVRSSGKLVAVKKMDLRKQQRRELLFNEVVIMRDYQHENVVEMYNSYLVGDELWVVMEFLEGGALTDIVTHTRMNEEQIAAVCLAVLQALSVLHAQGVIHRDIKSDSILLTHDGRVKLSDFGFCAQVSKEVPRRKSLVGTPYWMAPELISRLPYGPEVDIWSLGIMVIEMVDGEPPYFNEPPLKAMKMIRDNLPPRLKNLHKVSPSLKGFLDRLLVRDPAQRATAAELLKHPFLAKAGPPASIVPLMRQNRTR
Assay [12] deals with T3, Serine/threonine-protein kinase NLK (Homo sapiens, UniProt Q9UBE8).
T3 sequence (Q9UBE8 whole entry): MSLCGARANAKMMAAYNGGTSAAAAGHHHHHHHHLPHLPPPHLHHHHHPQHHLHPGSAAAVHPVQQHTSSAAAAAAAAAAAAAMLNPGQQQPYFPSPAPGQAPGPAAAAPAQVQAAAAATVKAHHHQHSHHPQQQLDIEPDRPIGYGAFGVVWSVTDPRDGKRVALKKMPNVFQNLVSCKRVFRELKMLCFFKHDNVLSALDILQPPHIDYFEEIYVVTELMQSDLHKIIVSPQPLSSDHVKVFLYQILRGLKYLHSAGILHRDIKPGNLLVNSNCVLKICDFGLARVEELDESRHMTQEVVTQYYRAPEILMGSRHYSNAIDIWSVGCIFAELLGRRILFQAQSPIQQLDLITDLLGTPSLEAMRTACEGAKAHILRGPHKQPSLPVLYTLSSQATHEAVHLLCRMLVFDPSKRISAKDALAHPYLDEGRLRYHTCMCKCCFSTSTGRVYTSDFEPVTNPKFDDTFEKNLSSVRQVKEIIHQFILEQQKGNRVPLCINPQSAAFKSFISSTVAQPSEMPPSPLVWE

Assay [13] concerns the target Myosin-14 (Homo sapiens, UniProt Q7Z406).
The target in assay [14] is T4, Mitogen-activated protein kinase kinase kinase kinase 2 (Homo sapiens, UniProt Q12851).
T4 sequence (Q12851 whole entry): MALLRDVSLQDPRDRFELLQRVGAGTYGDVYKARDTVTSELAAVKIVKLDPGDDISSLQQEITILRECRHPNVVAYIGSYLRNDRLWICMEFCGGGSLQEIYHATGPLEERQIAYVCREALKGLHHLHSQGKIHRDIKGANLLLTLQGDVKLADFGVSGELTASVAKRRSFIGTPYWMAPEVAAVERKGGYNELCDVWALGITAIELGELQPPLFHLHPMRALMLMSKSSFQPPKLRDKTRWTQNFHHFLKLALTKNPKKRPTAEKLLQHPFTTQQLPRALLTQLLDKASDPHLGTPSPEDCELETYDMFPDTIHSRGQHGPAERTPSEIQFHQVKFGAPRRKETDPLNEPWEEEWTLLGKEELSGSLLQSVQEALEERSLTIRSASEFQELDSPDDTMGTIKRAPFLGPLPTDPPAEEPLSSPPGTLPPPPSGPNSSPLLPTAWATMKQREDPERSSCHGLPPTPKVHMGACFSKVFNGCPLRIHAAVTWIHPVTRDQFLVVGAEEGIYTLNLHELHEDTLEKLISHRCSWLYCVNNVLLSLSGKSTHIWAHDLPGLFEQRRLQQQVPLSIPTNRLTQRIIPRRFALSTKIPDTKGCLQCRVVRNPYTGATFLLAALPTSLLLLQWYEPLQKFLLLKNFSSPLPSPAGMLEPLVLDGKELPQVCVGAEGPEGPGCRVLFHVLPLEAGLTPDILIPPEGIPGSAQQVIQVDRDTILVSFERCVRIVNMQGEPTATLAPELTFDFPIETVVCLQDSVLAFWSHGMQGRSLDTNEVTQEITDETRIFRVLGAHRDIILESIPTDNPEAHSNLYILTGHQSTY

The target in assay [15] is G protein-coupled receptor kinase 6 (Homo sapiens, UniProt P43250).
The target in assay [16] is Obg-like ATPase 1 (Homo sapiens, UniProt Q9NTK5).

Molecules are shown by their SMILES. Activity calls are given as the source filed them.
Note: in the data inactive means no Kd found up to 30 µM.

Sequence of Aurora kinase B (Q96GD4 whole entry): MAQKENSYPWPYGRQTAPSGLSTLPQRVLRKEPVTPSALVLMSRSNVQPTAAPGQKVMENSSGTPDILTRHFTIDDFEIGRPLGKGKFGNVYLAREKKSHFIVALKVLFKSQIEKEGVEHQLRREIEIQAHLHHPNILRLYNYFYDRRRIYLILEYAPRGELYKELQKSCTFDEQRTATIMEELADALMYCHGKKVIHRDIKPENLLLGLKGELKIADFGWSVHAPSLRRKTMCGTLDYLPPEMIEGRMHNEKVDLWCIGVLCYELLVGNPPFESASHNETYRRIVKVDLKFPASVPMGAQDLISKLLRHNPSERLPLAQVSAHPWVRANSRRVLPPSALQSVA
Sequence of Myosin-14 (Q7Z406 whole entry): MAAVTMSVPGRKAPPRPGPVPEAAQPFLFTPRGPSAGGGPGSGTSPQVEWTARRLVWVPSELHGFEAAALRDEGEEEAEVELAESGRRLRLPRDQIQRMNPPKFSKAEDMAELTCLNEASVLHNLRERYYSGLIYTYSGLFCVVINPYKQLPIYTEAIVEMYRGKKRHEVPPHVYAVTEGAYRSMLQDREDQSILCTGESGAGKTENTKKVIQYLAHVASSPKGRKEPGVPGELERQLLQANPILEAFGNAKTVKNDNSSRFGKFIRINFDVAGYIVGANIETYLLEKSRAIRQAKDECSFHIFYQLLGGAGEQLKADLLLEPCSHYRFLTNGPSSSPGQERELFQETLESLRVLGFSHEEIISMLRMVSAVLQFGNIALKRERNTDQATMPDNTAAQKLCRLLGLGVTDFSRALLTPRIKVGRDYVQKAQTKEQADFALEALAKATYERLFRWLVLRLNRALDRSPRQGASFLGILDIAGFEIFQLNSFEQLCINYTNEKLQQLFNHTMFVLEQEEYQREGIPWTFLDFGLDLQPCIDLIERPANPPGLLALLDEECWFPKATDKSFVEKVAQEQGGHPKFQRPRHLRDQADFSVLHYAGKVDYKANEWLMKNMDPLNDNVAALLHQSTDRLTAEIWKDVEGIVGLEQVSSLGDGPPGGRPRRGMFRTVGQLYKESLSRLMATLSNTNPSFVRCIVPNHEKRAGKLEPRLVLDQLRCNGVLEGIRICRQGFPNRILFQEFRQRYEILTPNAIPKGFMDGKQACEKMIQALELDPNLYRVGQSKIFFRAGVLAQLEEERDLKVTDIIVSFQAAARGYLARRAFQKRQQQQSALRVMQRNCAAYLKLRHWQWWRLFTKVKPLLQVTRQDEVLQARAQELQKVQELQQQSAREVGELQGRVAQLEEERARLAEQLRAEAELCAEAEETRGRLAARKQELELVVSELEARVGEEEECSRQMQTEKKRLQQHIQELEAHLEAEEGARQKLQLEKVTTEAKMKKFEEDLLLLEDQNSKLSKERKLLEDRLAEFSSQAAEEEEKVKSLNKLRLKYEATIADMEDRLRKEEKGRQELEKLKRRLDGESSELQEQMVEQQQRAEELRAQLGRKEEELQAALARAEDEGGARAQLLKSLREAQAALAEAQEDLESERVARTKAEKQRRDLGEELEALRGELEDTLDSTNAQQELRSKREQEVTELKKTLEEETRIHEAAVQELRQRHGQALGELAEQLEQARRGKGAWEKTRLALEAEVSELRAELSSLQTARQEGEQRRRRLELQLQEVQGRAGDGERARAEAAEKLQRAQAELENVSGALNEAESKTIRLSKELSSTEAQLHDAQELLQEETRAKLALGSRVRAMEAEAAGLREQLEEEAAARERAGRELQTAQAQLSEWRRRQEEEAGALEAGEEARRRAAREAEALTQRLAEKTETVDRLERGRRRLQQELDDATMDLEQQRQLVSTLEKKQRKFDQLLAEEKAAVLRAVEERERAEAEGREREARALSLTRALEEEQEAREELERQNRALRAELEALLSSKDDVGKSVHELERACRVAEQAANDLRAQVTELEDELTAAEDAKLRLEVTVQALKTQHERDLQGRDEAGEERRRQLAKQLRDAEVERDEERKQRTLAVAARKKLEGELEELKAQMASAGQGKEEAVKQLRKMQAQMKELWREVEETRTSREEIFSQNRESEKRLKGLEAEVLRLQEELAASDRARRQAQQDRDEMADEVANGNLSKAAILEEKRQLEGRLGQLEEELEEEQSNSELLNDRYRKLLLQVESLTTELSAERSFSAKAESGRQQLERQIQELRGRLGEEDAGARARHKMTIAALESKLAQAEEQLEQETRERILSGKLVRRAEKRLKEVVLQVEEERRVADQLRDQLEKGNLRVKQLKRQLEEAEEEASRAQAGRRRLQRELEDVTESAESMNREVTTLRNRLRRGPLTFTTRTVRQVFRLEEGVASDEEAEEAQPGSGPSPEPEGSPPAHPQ

Consider `Cc1cnc(NC(=O)Nc2cc(Br)c(C)cc2OC[C@@H]2CNCCO2)cn1` [RABUSERTIB], for which the Kd in [1], in [2], in assay [3], in [4], in [5] and in [6] was > 30 µM (inactive) throughout. The Kd in assay [7], in [8], in assay [9], in assay [10], in assay [11] and in [12] was > 30 µM (inactive) in each case. The Kd in [13], in assay [14], in assay [15] and in assay [16] was > 30 µM (inactive) in each case.

As to `CNC(=O)c1cc(Oc2ccc(NC(=O)Nc3cc(C(C)(C)C)nn3-c3ccc4ncccc4c3)c(F)c2)ccn1` [REBASTINIB], the Kd in [1], in assay [2], in assay [3], in [4], in assay [5] and in assay [6] was > 30 µM (inactive) throughout. Further, the Kd in [7] was > 30 µM (inactive); in [8] it was > 30 µM (inactive); in assay [9] it was > 30 µM (inactive); in [10], 9.24 µM (active); in [11] it was > 30 µM (inactive); in [12], > 30 µM (inactive). For the same molecule, the Kd was > 30 µM (inactive) in assay [13], 1.06 µM (active) in assay [14], > 30 µM (inactive) in assay [15] and > 30 µM (inactive) in assay [16].

On to `N#CC1(c2ccc(NC(=O)c3cccnc3NCc3ccncc3)cc2)CCCC1` [RIVOCERANIB], for which the Kd in assay [1], in assay [2], in assay [3], in assay [4], in assay [5] and in assay [6] was > 30 µM (inactive) throughout. Also, the Kd in assay [7], in assay [8], in assay [9], in assay [10], in [11] and in assay [12] was > 30 µM (inactive) in each case. Also, the Kd in assay [13], in assay [14], in assay [15] and in [16] was > 30 µM (inactive) each time.

On to `CO[C@H]1C[C@@H]2CC[C@@H](C)[C@@](O)(O2)C(=O)C(=O)N2CCCC[C@H]2C(=O)O[C@H]([C@H](C)C[C@@H]2CC[C@@H](OC(=O)C(C)(CO)CO)[C@H](OC)C2)CC(=O)[C@H](C)/C=C(\C)[C@@H](O)[C@@H](OC)C(=O)[C@H](C)C[C@H](C)/C=C/C=C/C=C/1C` [TEMSIROLIMUS], for which the Kd in assay [1], in [2], in assay [3], in assay [4], in assay [5] and in [6] was > 30 µM (inactive) throughout. Besides, the Kd in [7], in assay [8], in [9], in assay [10], in assay [11] and in assay [12] was > 30 µM (inactive) each time. The Kd in [13], in assay [14], in assay [15] and in assay [16] was > 30 µM (inactive) throughout.

Regarding `COc1cc2c(Nc3ccc(Cl)c(Cl)c3F)ncnc2cc1OC[C@@H]1C[C@@H]2CN(C)C[C@@H]2C1` [TESEVATINIB], the Kd in [1], in assay [2], in assay [3], in assay [4], in assay [5] and in assay [6] was > 30 µM (inactive) each time. Moreover, the Kd in assay [7], in [8], in assay [9], in assay [10], in [11] and in assay [12] was > 30 µM (inactive) in each case. For the same molecule, the Kd in [13], in [14], in assay [15] and in assay [16] was > 30 µM (inactive) in each case.

For the molecule `O=C(Cc1ccc(-c2ccc(OCCN3CCOCC3)cc2)cn1)NCc1ccccc1` [TIRBANIBULIN], the Kd in assay [1], in assay [2], in [3], in assay [4], in assay [5] and in [6] was > 30 µM (inactive) throughout. Moreover, the Kd in [7], in assay [8], in assay [9], in [10], in [11] and in assay [12] was > 30 µM (inactive) each time. Moreover, the Kd in assay [13], in assay [14], in [15] and in [16] was > 30 µM (inactive) each time.

In the case of `O=C1NC(=O)[C@@H](c2cn3c4c(cccc24)CCC3)[C@@H]1c1c[nH]c2ccccc12` [TIVANTINIB], the Kd in assay [1], in assay [2], in [3], in assay [4], in assay [5] and in assay [6] was > 30 µM (inactive) each time. Also, the Kd in [7], in assay [8], in [9], in assay [10], in assay [11] and in assay [12] was > 30 µM (inactive) in each case. Further, the Kd in assay [13], in assay [14], in assay [15] and in assay [16] was > 30 µM (inactive) throughout.

The term Kd denotes a measure of binding affinity in units of concentration.

These data come from ChEMBL document CHEMBL3991601, “The target landscape of clinical kinase drugs” (Science, 2017).
